Assay results reported in the supplement of paper PMC8837787.

Each molecule was assayed on Saccharomyces cerevisiae ABC16-Green Monster (assay: growth inhibition at single dose (up to 150 µM), below the 70% cut-off for dose-response; higher = more potent). Conditions: 18 h; 30 °C; YPD.
In short: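 Values are percent growth inhibition of drug-sensitive S. cerevisiae ABC16-Green Monster cells. Cells grown overnight in YPD at 30 °C were diluted to log phase (OD600 0.1–0.2), and each library compound was added at a single dose of 150 µM to 200 µl culture per well in 96-well plates, in biological duplicates, beside untreated cultures. OD600 was read at 0 h and after 18 h at 30 °C, and compounds under 70% in both replicates were not taken to dose-response.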

Structure (SMILES)	growth inhibition at single dose [%]
CN(Cc1c(F)cccc1Cl)C(=O)COc1ccc2[nH]c3ccccc3c(=O)c2c1	< 70
N#Cc1ccnc(N2CCN(C(=O)c3cccc(-n4cccc4)c3)CC2)c1	< 70
Cc1ccnc(NC(=O)C2CC(=O)N(c3ccc(C)c(C)c3)C2)c1 (centres undefined)	< 70
CC(C)(C)c1ccc(C(=O)Nc2ncccc2O)cc1	< 70
CC(NC(C)c1ccc(Cl)cc1)C(=O)Nc1sccc1C(N)=O (centres undefined)	< 70
Cn1ccnc1SCC(=O)Nc1ccc(C(=O)Nc2ncccc2O)cc1	< 70
O=C(CN1C(=O)CSc2ccc(C(F)(F)F)cc21)Nc1ccc(Cl)cc1	< 70
COc1cc(CNCCc2ccc(Cl)cc2)cc(OC)c1O	< 70
CNc1snc(C)c1C(=O)OCc1cc(C(=O)OC)c(C)o1	< 70
COc1ccc(NC(=O)c2ccoc2)cc1S(=O)(=O)Nc1ccc(Br)cc1	< 70
Cc1ccc(S(=O)(=O)Nc2ccc(CN3CCN(C(=O)c4cccc(C#N)c4)CC3)cc2)cc1	< 70
c1ccc(SCc2ccc(-c3nc4ccccc4s3)cc2)nc1	< 70
O=c1nc(/C=C/c2ccc(Cl)cc2)oc2ccccc12	< 70
Cc1ccc(-c2cc3nc4c(c(O)n3n2)CCCC4)cc1	< 70
Cc1ccccc1-n1nnc(C(=O)Nc2cccc(Br)c2)c1N	< 70
O=C(Nc1cccc(-c2ccc(NCCCN3CCCC3)nc2)c1)c1ccccc1	< 70
Cc1ccc(OCCCCCCNCCO)c(C)c1	< 70
Nc1nccc2ccc(-c3ccc4nccn4c3)cc12	< 70
c1ccc2c(c1)[nH]c1nc(SCc3cn4ccsc4n3)nnc12	< 70
Cc1cccc(C(=O)Nc2ccnc(N(C)C3CCN(CC(C)C)CC3)c2)c1	< 70
O=C(NC(c1ccccc1)c1ccc2cccnc2c1O)c1ccccc1 (centres undefined)	< 70
Oc1ccc(Br)cc1CN1CCN(Cc2ccc(Cl)cc2)CC1	< 70
CCOc1ccc(-c2nonc2NC(=O)c2cccc(C)c2)cc1OCC	< 70
COc1cccc(-c2cc3c(Nc4cccnc4)nccc3[nH]2)c1	< 70

Structure (SMILES)	growth inhibition at single dose [%]
Clc1ccc(-n2cc(COc3ccnc4ccccc34)nn2)cc1	< 70
Cc1nnc(NC(=O)c2cn(-c3ccccc3)nc2-c2ccccc2C)o1	< 70
COc1cc(NC(=O)Cc2nn(C)c(=O)c3ccccc23)ccc1Cl	< 70
Nc1c(C(=O)N2CCOCC2)sc2nc3c(cc12)CCCCC3	< 70
CC(C)c1ncc(-c2ccncc2)c([C@H]2CC[C@H](CNC(=O)c3cccnc3)CC2)n1	< 70
CCc1ccccc1-n1c(C)cn2c3c(=O)n(C(C(=O)OC)C(C)C)c(=O)n(C)c3nc12 (centres undefined)	< 70
COc1cc(C2=NCCN2)ccc1-c1cn(-c2cccc(C3=NCCN3)c2)nn1	< 70
Cc1ccc(O)c(C(=O)NCCC(C)C)c1	< 70
CCN(CC)S(=O)(=O)c1ccc(Cl)c(C(=O)Nc2ccc3nc(C)sc3c2)c1	< 70
Cc1ccc(F)cc1NC(=O)c1cc(Cl)ccc1Nc1ccccc1	< 70
Cc1cc(C(=O)CSc2nc3ccccc3[nH]2)c(C)n1-c1ccc(F)cc1	< 70
CCOC(=O)c1cnc2c(CC)cccc2c1O	< 70
COc1cccc2c(C)nc(N=C(N)N)nc12	< 70
COc1ccc(-c2nc3cc(Cc4ccc5[nH]c(-c6ccc(OC)cc6)nc5c4)ccc3[nH]2)cc1	< 70
CCSc1nccc(-c2ccc3c(c2)CCC(C)(C)O3)n1	< 70
CNc1snc(C)c1C(=O)N(C)Cc1ccccc1OC(F)(F)F	< 70
Cc1[nH]c(-c2ccc(F)cc2)cc1C(=O)NC1CCN(Cc2ccccc2)CC1	< 70
Cc1cc(C2=NOC(c3cc(Cl)c(F)c(Cl)c3)(C(F)(F)F)C2)ccc1C(=O)NCc1ccc2c(c1)C(C)(C)OB2O (centres undefined)	< 70
O=C(c1cc2ccccc2o1)N1CCN(Cc2ccc3c(c2)OCO3)CC1	< 70
CCc1nc2ccc(Cl)cn2c1C(=O)NCc1ccc(N2CCC(c3ccc(OC(F)(F)F)cc3)CC2)cc1	< 70
Cc1c(C)n(CCCO)c2ncn3nc(-c4ccccc4O)nc3c12	< 70
CCN1CCN(c2cc(C)c3cc(NC(=O)c4ccc(OC)c(OC)c4)ccc3n2)CC1	< 70
Brc1c(-c2ccc3c(c2)OCO3)nc2ncccn12	< 70
Brc1ccc(-[n+]2nc(-c3ccccc3)nn2-c2nn[nH]n2)cc1	< 70

Structure (SMILES)	growth inhibition at single dose [%]
N#Cc1nc(-c2ccccc2)oc1S(=O)(=O)c1ccc(Cl)cc1	< 70
Cc1cc(NC(=O)c2ccc(S(=O)(=O)N(Cc3ccccc3)C(C)C)cc2)no1	< 70
CN(C)CC(C)(C)CNc1nn2cc(-c3ccccc3)nc2s1	< 70
O=C(NCCc1c[nH]c2ccccc12)c1cc2ccccc2oc1=O	< 70
O=C(NC1CCCCC1)C(c1cccs1)N(CCc1ccccc1)C(=O)c1ccco1 (centres undefined)	< 70
CCOc1ccc(-c2nc(NC(=O)c3cccc(S(C)(=O)=O)c3)sc2C)cc1	< 70
O=C(Nc1ccc(Oc2ccc3ccccc3c2)cc1)c1ccccc1	< 70
CC(C)(C)CC(C)(C)NCC(O)COc1ccc(Cl)cc1Cl (centres undefined)	< 70
O=c1cc(-c2ccccc2)[nH]c2ccccc12	< 70
Cc1ccc(Oc2c(C)[nH]c(-c3ccccc3)nc2=O)cc1	< 70
CC(C)(C)C1CCC(CC2=C(O)C(=O)c3ccccc3C2=O)CC1 (centres undefined)	< 70
CCOC(=O)Cc1ccc(NC(=O)c2ccc(C(C)(C)C)cc2)cc1	< 70
Cc1ccc(-n2c(C)cc(C(=O)COC(=O)c3ccc[nH]c3=O)c2C)cc1C	< 70
CC/N=c1\scc(-c2ccc(Cl)cc2)n1/N=C/c1ccc[nH]1	< 70
O=C1O[C@@H](COc2ccon2)CN1c1cc(F)c(C2=CCN(Cc3ccccc3)CC2)c(F)c1	< 70
CN(CCO)c1ccc(C(=O)c2ccc(N(C)CCO)cc2)cc1	< 70
COc1ccnc(Nc2ccc3c(c2)nc2n3CCCCC2)n1	< 70
O=C(Nc1ccc(Cl)cc1C(=O)Nc1ccncc1)c1ccc(Cl)cc1Cl	< 70
CCN(CC)CCn1c(NC(=O)c2cnc3c(cnn3C(C)C)c2)nc2ccccc21	< 70
O=c1ccc(-c2nc3c4c5c(sc4ncn3n2)CCCCC5)n[nH]1	< 70
COc1ccc2nc(C)cc(Nc3ccc(Cl)cc3)c2c1	< 70
CS(=O)(=O)N1CCCc2cc(-c3csc(Nc4ccccn4)n3)ccc21	< 70
CCN(CC)C(=O)N1CCN(C)CC1	< 70
COc1cc(NC(C)CCCN)c2ncccc2c1 (centres undefined)	< 70

Structure (SMILES)	growth inhibition at single dose [%]
CCOc1cc(CNC(C)C(O)c2ccccc2)cc(Cl)c1OCC (centres undefined)	< 70
COc1cc2ncnc(NC3CCN(Cc4ccccc4)CC3)c2cc1OC	< 70
COc1ccc(-c2nc(C(=O)N3CCc4ccccc43)cs2)cc1OC	< 70
COc1ccc(C=C2SC(Nc3ccc(F)cc3)=NC2=O)c(OC)c1	< 70
Cc1cc(C(=O)Nc2cnn(Cc3ccc(Cl)cc3Cl)c2)no1	< 70
COc1cccc(-c2nc3c(N4CCCC4)cccc3n2CC2CCCN2)n1 (centres undefined)	< 70
Cc1ccc2cc3c(N)c4c(C)ccc(C)c4nc3nc2c1	< 70
Cc1nn2c(=O)c(Cc3ccccc3)c(C)[nH]c2c1-c1ccc(F)cc1	< 70
CC(C)NC(=O)NCc1ccc(C(=O)OCC(=O)C(C#N)=C2Nc3ccccc3N2)cc1	< 70
Cc1cc(-c2nc(=O)c3ccccc3[nH]2)c(C)n1CC(C)C	< 70
O=C(Nc1cccnc1)c1c(O)c2cccc3c2n(c1=O)CC3	< 70
CC1c2cccc(O)c2C(O)=C2C(=O)C3(O)C(O)=C(C(N)=O)C(=O)C(N(C)C)C3C(O)C21 (centres undefined) [Doxycycline]	< 70
CC(C)(C)C(=O)Nc1ccc(C(=O)Nc2cccc(-c3nc4ccccc4[nH]3)c2)cc1	< 70
CCOC(=O)c1c(C)[nH]c(C(=O)Nc2ncccc2C)c1C	< 70
Nc1ncc(Br)cc1-c1nc2cc(Cl)cnc2[nH]1	< 70
COc1ccc(-n2ccnc2SCC(=O)Nc2cc(C)ccc2C)c(OC)c1	< 70
Cc1cc(Nc2ccc(Cl)cc2)n2nc(C(F)(F)F)nc2n1	< 70
Cn1nnnc1SCC(=O)Nc1ccc(C(=O)Nc2ncccc2O)cc1	< 70
COc1ccc(OC(C)C(=O)Nc2ccc(Cl)cc2C)cc1 (centres undefined)	< 70
OC[C@H]1O[C@@H](n2c3ccc(Cl)cc3c3c(-c4cc5ccccc5o4)ncnc32)C(O)[C@H]1O (some centres undefined)	< 70
CN1CCN(c2c3c(c(C#N)c4nc5ccccc5n24)CCC3)CC1	< 70
CCOC(=O)c1ccc(Oc2nc3ccccc3nc2C(C#N)C(=O)OC)cc1 (centres undefined)	< 70
